Data from PubChem BioAssay (NCI).
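Briefly, cells in 96-well plates were exposed to five compound concentrations for 48 h, and endpoints were estimated by linear interpolation. GI50 is the concentration that inhibits growth by half. TGI marks complete inhibition of growth.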

Key:
Test in all cases: growth of human tumour cells (NCI), 48 h
NCI/ADR-RES ovarian = test system: NCI/ADR-RES ovarian
T-47D breast = test system: T-47D breast
HCT-116 colon = test system: HCT-116 colon
SK-OV-3 ovarian = test system: SK-OV-3 ovarian
KM12 colon = test system: KM12 colon
NCI-H226 lung = test system: NCI-H226 lung
SW-620 colon = test system: SW-620 colon
SK-MEL-28 melanoma = test system: SK-MEL-28 melanoma
UACC-257 melanoma = test system: UACC-257 melanoma
ACHN renal = test system: ACHN renal
MALME-3M melanoma = test system: MALME-3M melanoma
UO-31 renal = test system: UO-31 renal
OVCAR-4 ovarian = test system: OVCAR-4 ovarian
786-0 renal = test system: 786-0 renal
EKVX NSCLC = test system: EKVX NSCLC
UACC-62 melanoma = test system: UACC-62 melanoma
NCI-H522 lung = test system: NCI-H522 lung
PC-3 prostate = test system: PC-3 prostate
OVCAR-5 ovarian = test system: OVCAR-5 ovarian
HCT-15 colon = test system: HCT-15 colon
NCI-H23 lung = test system: NCI-H23 lung
A549 NSCLC = test system: A549 NSCLC
MOLT-4 leukemia = test system: MOLT-4 leukemia
TK-10 renal = test system: TK-10 renal
SK-MEL-5 melanoma = test system: SK-MEL-5 melanoma
LOX IMVI melanoma = test system: LOX IMVI melanoma
CAKI-1 renal = test system: CAKI-1 renal
SNB-75 CNS = test system: SNB-75 CNS
SF-268 CNS = test system: SF-268 CNS
K-562 leukemia = test system: K-562 leukemia
MCF7 breast = test system: MCF7 breast
HOP-62 NSCLC = test system: HOP-62 NSCLC
SK-MEL-2 melanoma = test system: SK-MEL-2 melanoma
RXF 393 renal = test system: RXF 393 renal
SF-539 CNS = test system: SF-539 CNS
SR leukemia = test system: SR leukemia
RPMI-8226 leukemia = test system: RPMI-8226 leukemia
HL-60(TB) leukemia = test system: HL-60(TB) leukemia
HOP-92 NSCLC = test system: HOP-92 NSCLC
CCRF-CEM leukemia = test system: CCRF-CEM leukemia
MDA-MB-435 = test system: MDA-MB-435
HCC-2998 colon = test system: HCC-2998 colon
IGROV1 ovarian = test system: IGROV1 ovarian
SNB-19 CNS = test system: SNB-19 CNS
MDA-MB-231 breast = test system: MDA-MB-231 breast
SN12C renal = test system: SN12C renal
OVCAR-3 ovarian = test system: OVCAR-3 ovarian
NCI-H460 lung = test system: NCI-H460 lung
DU-145 prostate = test system: DU-145 prostate
HT29 colon = test system: HT29 colon
M14 melanoma = test system: M14 melanoma
HS 578T breast = test system: HS 578T breast
BT-549 breast = test system: BT-549 breast
U251 CNS = test system: U251 CNS
COLO 205 colon = test system: COLO 205 colon
OVCAR-8 ovarian = test system: OVCAR-8 ovarian
SF-295 CNS = test system: SF-295 CNS
MDA-MB-468 breast = test system: MDA-MB-468 breast

Compound: COc1cc(NC(=O)c2cccc(C3CCc4c(cc(OC)c(OC)c4OC)O3)c2)cc(OC)c1OC (stereo not given)
- GI50 (NCI/ADR-RES ovarian): 2.1 µM
- TGI (NCI/ADR-RES ovarian): 6.91 µM
- GI50 (T-47D breast): 2.5 µM
- TGI (T-47D breast): 9.29 µM
- GI50 (HCT-116 colon): 3.69 µM
- TGI (HCT-116 colon): > 100 µM
- GI50 (SK-OV-3 ovarian): 3.65 µM
- TGI (SK-OV-3 ovarian): > 100 µM
- GI50 (KM12 colon): 3.1 µM
- TGI (KM12 colon): > 100 µM
- GI50 (NCI-H226 lung): 2.55 µM
- GI50 (SW-620 colon): 3.52 µM
- TGI (SW-620 colon): > 100 µM
- GI50 (SK-MEL-28 melanoma): 4.64 µM
- TGI (SK-MEL-28 melanoma): > 100 µM
- GI50 (UACC-257 melanoma): 3.89 µM
- TGI (UACC-257 melanoma): > 100 µM
- GI50 (ACHN renal): 3.77 µM
- TGI (ACHN renal): > 100 µM
- GI50 (MALME-3M melanoma): 2.45 µM
- TGI (MALME-3M melanoma): > 100 µM
- GI50 (UO-31 renal): 2.59 µM
- TGI (UO-31 renal): 19.2 µM
- GI50 (OVCAR-4 ovarian): 4.49 µM
- TGI (OVCAR-4 ovarian): > 100 µM
- GI50 (786-0 renal): 4.23 µM
- TGI (786-0 renal): > 100 µM
- GI50 (EKVX NSCLC): 6.37 µM
- TGI (EKVX NSCLC): > 100 µM
- GI50 (UACC-62 melanoma): 1.74 µM
- TGI (UACC-62 melanoma): 8.33 µM
- GI50 (NCI-H522 lung): 1.56 µM
- TGI (NCI-H522 lung): 4.63 µM
- GI50 (PC-3 prostate): 2.66 µM
- TGI (PC-3 prostate): > 100 µM
- GI50 (OVCAR-5 ovarian): 5.01 µM
- TGI (OVCAR-5 ovarian): > 100 µM
- GI50 (HCT-15 colon): 2.7 µM
- TGI (HCT-15 colon): > 100 µM
- GI50 (NCI-H23 lung): 4.37 µM
- TGI (NCI-H23 lung): > 100 µM
- GI50 (A549 NSCLC): 3.91 µM
- TGI (A549 NSCLC): > 100 µM
- GI50 (MOLT-4 leukemia): 2.86 µM
- TGI (MOLT-4 leukemia): 27.5 µM
- GI50 (TK-10 renal): 4.32 µM
- TGI (TK-10 renal): > 100 µM
- GI50 (SK-MEL-5 melanoma): 1.58 µM
- TGI (SK-MEL-5 melanoma): 4.52 µM
- GI50 (LOX IMVI melanoma): 3.62 µM
- TGI (LOX IMVI melanoma): > 100 µM
- GI50 (CAKI-1 renal): 2.37 µM
- TGI (CAKI-1 renal): > 100 µM
- GI50 (SNB-75 CNS): 2.33 µM
- TGI (SNB-75 CNS): 7.99 µM
- GI50 (SF-268 CNS): 3.78 µM
- TGI (SF-268 CNS): > 100 µM
- GI50 (K-562 leukemia): 1.75 µM
- TGI (K-562 leukemia): > 100 µM
- GI50 (MCF7 breast): 2.29 µM
- TGI (MCF7 breast): > 100 µM
- GI50 (HOP-62 NSCLC): 3.51 µM
- TGI (HOP-62 NSCLC): > 100 µM
- GI50 (SK-MEL-2 melanoma): 2.66 µM
- TGI (SK-MEL-2 melanoma): > 100 µM
- GI50 (RXF 393 renal): 1.59 µM
- TGI (RXF 393 renal): 8.46 µM
- GI50 (SF-539 CNS): 2.13 µM
- TGI (SF-539 CNS): 5.81 µM
- GI50 (SR leukemia): 0.925 µM
- TGI (SR leukemia): 84.9 µM
- GI50 (RPMI-8226 leukemia): 1.95 µM
- TGI (RPMI-8226 leukemia): 12.7 µM
- GI50 (HL-60(TB) leukemia): 2.04 µM
- TGI (HL-60(TB) leukemia): 5.79 µM
- GI50 (HOP-92 NSCLC): 3.96 µM
- TGI (HOP-92 NSCLC): > 100 µM
- GI50 (CCRF-CEM leukemia): 2.75 µM
- TGI (CCRF-CEM leukemia): > 100 µM
- GI50 (MDA-MB-435): 0.497 µM
- TGI (MDA-MB-435): 3.33 µM
- GI50 (HCC-2998 colon): 7.64 µM
- TGI (HCC-2998 colon): > 100 µM
- GI50 (IGROV1 ovarian): 4.15 µM
- TGI (IGROV1 ovarian): > 100 µM
- GI50 (SNB-19 CNS): 5.94 µM
- TGI (SNB-19 CNS): > 100 µM
- GI50 (MDA-MB-231 breast): 4.12 µM
- TGI (MDA-MB-231 breast): > 100 µM
- GI50 (SN12C renal): 3.47 µM
- TGI (SN12C renal): > 100 µM
- GI50 (OVCAR-3 ovarian): 3.42 µM
- TGI (OVCAR-3 ovarian): > 100 µM
- GI50 (NCI-H460 lung): 3.24 µM
- TGI (NCI-H460 lung): > 100 µM
- GI50 (DU-145 prostate): 3.83 µM
- TGI (DU-145 prostate): > 100 µM
- GI50 (HT29 colon): 2.46 µM
- TGI (HT29 colon): 6.07 µM
- GI50 (M14 melanoma): 2.53 µM
- TGI (M14 melanoma): 71 µM
- GI50 (HS 578T breast): 2.04 µM
- TGI (HS 578T breast): 6.74 µM
- GI50 (BT-549 breast): 1.99 µM
- TGI (BT-549 breast): 8.22 µM
- GI50 (U251 CNS): 3.6 µM
- TGI (U251 CNS): > 100 µM
- GI50 (COLO 205 colon): 2 µM
- TGI (COLO 205 colon): 5.31 µM
- GI50 (OVCAR-8 ovarian): 3.2 µM
- TGI (OVCAR-8 ovarian): > 100 µM
- GI50 (SF-295 CNS): 2.46 µM
- TGI (SF-295 CNS): > 100 µM
- GI50 (MDA-MB-468 breast): 1.24 µM
- TGI (MDA-MB-468 breast): 4.41 µM
